Legend:
[1] = test system: DF-BM354; assay: In vivo treatment of orthotopic HER2-positive BCBM patient-derived xenograft DF-BM354 (bioluminescence imaging, survival); parameters: species or system mice; settings: BKM120 PO 30 mg/kg QD; RAD001 PO 7.5 mg/kg QD; MEK162 PO 15 mg/kg; GNE-317 PO 40 mg/kg QD
Experimental: Luciferase-expressing tumors were then propagated in mice.
The signals were analyzed with CareStream MI Software.
All compounds were purchased from Haoyuan ChemExpress Co.
GNE-317 obtained from Genetcch was dissolved in 0.5% methylcellulose/0.2% Tween 80 and given oral once/day at 40 mg/kg.

[2] = statement with literature citation; cited from earlier work
[3] = test system: PI3K pathway signaling (pAKT, pS6RP, p4EBP1), Ki67 and cleaved caspase-3 in DF-BM355 tumors; assay: Pharmacodynamic IHC / Western blot analysis of treated DF-BM355 tumors; settings: IHC after 4 days of treatment
Experimental: Diaminobenzidine (DAB), brightfield staining was performed according to standard protocols using DAB EnVision+™ System (Dako) on paraffin sections. Briefly five micron thick sections were deparaffinized with xylene, followed by gradation washes in 100%, 95%, 80% ethyl alcohol before performing heat antigen retrieval in 10 mM sodium citrate buffer (pH 6.0) for 20 minutes. Subsequently, sections were treated with peroxidase block (Dako) for ten minutes followed by overnight incubation at 4° C. with the following primary antibodies: polyclonal PTEN (Cell Signaling #9559), pS6RP-Ser235/236 (Cell Signaling #2211), p4EBP1-Thr37/46 (Cell Signaling #2855), or cleaved caspase-3 (Cell Signaling #9664) from Cell Signaling; estrogen receptor (ER) (ThermoScientific SP1) or HER2 (ThermoScientific SP3) from ThermoScientific; or progesterone receptor (PR) (Dako PgR 636), CK7 (Dako), GFAP (Dako #z0334), OLIG2 (Dako), or monoclonal mouse anti-Ki67 (Dako MIB-1 or Vector lab #VP K-451) from Dako or Vector lab. […]
Ki67 and cleaved caspase-3 indexes were calculated as a percentage of positive cells in 4-5 random areas of each sample. Images were captured at 40× or 60× magnification and quantifications of Ki67 and cleaved caspase-3 immunoreactivity were performed using the ImmunoRatio plugin provided in the Image J software. […]

Row | SMILES | therapeutic response / tumor growth of DF-BM354 (bioluminescence imaging, survival) [1] | blood-brain barrier penetration [2] | number of Ki67-positive cells (cell proliferation) in DF-BM355 tumors [3]
1 | Nc1cc(C(F)(F)F)c(-c2cc(N3CCOCC3)nc(N3CCOCC3)n2)cn1 [BKM120, 5-(2,6-dimorpholin-4-ylpyrimidin-4-yl)-4-(trifluoromethyl)pyridin-2-amine] | neither BKM120 nor RAD001 monotherapy had meaningful effects | permeates the blood-brain barrier | did not decrease
2 | COC1(c2sc3c(N4CCOCC4)nc(-c4cnc(N)nc4)nc3c2C)COC1 [GNE-317, 5-(6-(3-methoxyoxetan-3-yl)-7-methyl-4-morpholinothieno[3,2-d]pyrimidin-2-yl)pyrimidin-2-amine] | marked regression | effectively crossing the blood brain barrier | –
3 | CO[C@H]1C[C@@H]2CC[C@@H](C)[C@@](O)(O2)C(=O)C(=O)N2CCCC[C@H]2C(=O)O[C@H]([C@H](C)C[C@@H]2CC[C@@H](OCCO)[C@H](OC)C2)CC(=O)[C@H](C)/C=C(\C)[C@@H](O)[C@@H](OC)C(=O)[C@H](C)C[C@H](C)/C=C/C=C/C=C/1C [RAD001] | neither BKM120 nor RAD001 monotherapy had meaningful effects | demonstrated blood-brain barrier (BBB) penetrance | –

— patent US11318139B2, “Methods for treating brain metastases using combinations of anti-P13K and anti-mTOR agents” (Dana-Farber Cancer Institute, Inc., priority 2016, dated 2022)
